Source: patent publication US20230346820A1, “METHODS AND COMPOSITIONS FOR THE TREATMENT OF SARS-COV-2” (priority 2020, published 2023)
Where a name gives a salt, the structure may show the parent alone. Read-outs that look alike come from different tables or passages of the source.

Experiments:
in vitro [1] = details: human
Procedure: To assess cell viability, 2 μL of 50% Cell-Titer Glo (Promega No G7573) diluted in water was added to the cells and luminescence measured on an EnVision Plate Reader (Perkin Elmer).
Data analysis. […] Primary in vitro screen and the host cell cytotoxicity counter screen data were uploaded to Genedata Screener, Version 16.0.3-Standard. […] For the uninfected host cell cytotoxicity counter screens, 40 μM puromycin (Sigma) was used as the positive (inhibitory) control in HeLa-ACE2, HepG2 and HEK293T cells, and 30 μM puromycin (Sigma) was used as the positive (inhibitory) control for Calu-3 cells. For dose response experiments compounds were tested in technical triplicates on different assay plates and dose curves were fitted with the four parameter Hill Equation. Technical replicate data were analyzed using median condensing. Geometric means and geometric standard deviations are reported for compound activities (EC50s and CC50s) obtained in multiple independent biological experiments. […] Geometric means were calculated by computing the logarithm (base 10) of all values, calculating the mean of these logarithms, and taking the antilog of that mean. Geometric standard deviations were computed by taking the standard deviation of the log-transformed individual values and taking the antilog of that standard deviation. The geometric standard deviation is a unitless ratio and reported as ×÷ instead of +/−.

in vitro [2] = details: human; remark: listed apart in the source
SARS-CoV-2 [3] = system: SARS-CoV-2
SARS-CoV-2 [4] = assay: microbe, parasite or virus in culture; details: Severe acute respiratory syndrome coronavirus 2, Calu-3, 48 h, read-out: Calu-3 CoV-2 EC50 [μM]
SARS-CoV-2 [5] = details: for HeLa-ACE2 SI CC50/CoV-2 EC50: Table 4
HeLa-ACE2 cells = assay: cells; format: cell-based, human; details: Homo sapiens, HeLa-ACE2, read-out: HeLa-ACE-2 EC50 [μM] (Geomeans, n ≥ 2)
SARS-CoV-2 [6] = assay: microbe, parasite or virus in culture; details: Severe acute respiratory syndrome coronavirus 2, HeLa-ACE2, 24 h, read-out: CoV-2 EC50 [μM] (Geomeans, n ≥ 2)
[7] = HeLa-ACE2 Uninfected Tox CC50 [μM], Table 4, aggregated data, Geomean, n = 3
[8] = CC50 [μM] (Geomeans, n ≥ 2 except where indicated: *n = 1)

| Compound | CC50 (in vitro [1]) | EC50 (SARS-CoV-2 [4]) | CC50 (in vitro [2]; [7]) | Calu3 SI CC50/CoV-2 EC50 (SARS-CoV-2 [3]; Table 4) | CC50 (in vitro [2]; [8]) | HeLa-ACE2 CC50/CoV-2 EC50 (SARS-CoV-2 [5]) | EC50 (HeLa-ACE2 cells) | EC50 (SARS-CoV-2 [6]) | also measured |
| --- | --- | --- | --- | --- | --- | --- | --- | --- | --- |
| CCc1ccc(C2=CC(C)(C)Sc3ccc(C#Cc4ccc(C(=O)O)cc4)cc32)cc1 [AGN-194310] | > 29.9 µM | 0.597 µM | – | – | – | – | – | – | CC50 (in vitro [2]; HeLa-ACE2 Uninfected Tox CC50 [μM]): > 39.8 µM; Calu3 SI CC50/CoV-2 EC50 (SARS-CoV-2 [3]): >50 |
| CC/C(=C(/c1ccc(/C=C/C(=O)O)cc1)c1ccc2[nH]ncc2c1)c1ccc(F)cc1Cl [ARN-810] | 23.8 µM | 1.1 µM | 11 µM | 21.60 | – | – | – | – | – |
| C=Cc1cc(C(=O)Nc2ccc(C(=N)N)cc2)c(-c2ccc(C(=O)NCC3CC3)nc2C(=O)O)cc1OC [Avoralstat] | > 29.9 µM | – | > 39.8 µM | >77 | – | – | – | – | activity in Calu-3 infection assay (SARS-CoV-2 [3]): active |
| COC(=O)[C@]12CCC(C)(C)C[C@H]1[C@H]1C(=O)C=C3[C@@]4(C)C=C(C#N)C(=O)C(C)(C)[C@@H]4CC[C@@]3(C)[C@]1(C)CC2 [Bardoxolone Methyl] | 3.06 µM | – | 3.1 µM | 38.47 | – | – | – | – | HeLa-ACE2 SI CC50/CoV-2 EC50 (SARS-CoV-2 [5]): 5.73 |
| O=C(Nc1ccc(Cl)c(S(=O)(=O)N2CCNCC2)c1O)Nc1cccc(F)c1Cl [Elubrixitosylate] | > 29.6 µM | 6.91 µM | > 39.8 µM | >4.28 | – | – | – | – | HeLa-ACE2 SI CC50/CoV-2 EC50 (SARS-CoV-2 [5]): 4.35 |
| N#Cc1cccc(C(C(=O)NCC(c2ccccc2)c2ccccc2)N(CCc2c[nH]cn2)C(=O)c2ccccc2C(=O)c2ccccc2)c1 (centres unmarked) [GENZ-29155] | > 29.9 µM | > 4.66 µM | > 38.5 µM | >6.41 | – | – | – | – | HeLa-ACE2 SI CC50/CoV-2 EC50 (SARS-CoV-2 [5]): 4.01 |
| CSc1ccc(CN2CCCC(Nc3ccc4[nH]ncc4c3)C2)cc1 (centres unmarked) [INS-117548] | > 29.9 µM | > 3.55 µM | > 39.8 µM | >8.42 | – | – | – | – | HeLa-ACE2 SI CC50/CoV-2 EC50 (SARS-CoV-2 [5]): 4.15 |
| CC(=O)O[C@H]1C[C@H](O[C@H]2[C@@H](O)C[C@H](O[C@H]3[C@@H](O)C[C@H](O[C@H]4CC[C@@]5(C)[C@H](CC[C@@H]6[C@@H]5C[C@@H](O)[C@]5(C)[C@@H](C7=CC(=O)OC7)CC[C@]65O)C4)O[C@@H]3C)O[C@@H]2C)O[C@H](C)[C@H]1O[C@@H]1O[C@H](CO)[C@@H](O)[C@H](O)[C@H]1O [LANATOSIDE] | 6.21 µM | 0.194 µM | 1.35 µM | 31.97 | – | – | – | – | HeLa-ACE2 SI CC50/CoV-2 EC50 (SARS-CoV-2 [5]): 6.56 |
| O[C@@H]1CO[C@H]2[C@@H]1OC[C@H]2Oc1nc2nc(-c3ccc(-c4ccccc4)cc3)c(Cl)cc2[nH]1 [MK-8722] | > 29.9 µM | 2.73 µM | 37.4 µM | >10 | – | – | – | – | – |
| O=c1nc(NO)ccn1[C@@H]1O[C@H](CO)[C@@H](O)[C@H]1O [N-hydroxycytidine] | – | – | – | – | > 37.5 µM | >18.13 | > 9.6 µM | – | activity in HeLa-ACE2 infection assay (SARS-CoV-2 [5]): potent and selective; activity in Calu-3 infection assay (SARS-CoV-2 [3]): potent and selective |
| CC[C@@H]1/C=C/C=C/C[C@H](C)[C@@H](O)[C@](C)(O)C(=O)[C@H](C)[C@@H](O)[C@H](C)C(=O)[C@H](C)[C@@H](O)[C@H](C)/C=C/C(=O)O[C@H]2[C@@H](C)[C@@H](CC1)O[C@]1(O[C@H](C[C@H](C)O)[C@H](C)CC1=O)[C@@H]2C [Oligomycin B] | – | 0.005 µM | – | 4539.49 | – | – | – | – | CC50 at 48 h (in vitro [1]): 24.5 µM |
| N=C(N)Nc1ccc(C(=O)Oc2ccc(S(N)(=O)=O)cc2)cc1 [Ono-3307] | > 29.9 µM | 1.6 µM | > 39.8 µM | >16 | – | – | – | – | – |
| CC(C)(C)c1ccc(CSc2cnn(C(C)(C)C)c(=O)c2Cl)cc1 [PYRIDABEN] | 8.99 µM | 0.205 µM | > 39.8 µM | 43.89 | – | – | – | – | – |
| COc1ccc(C2(c3ccccc3)NC(=O)N(CCCN3CCC(c4ccccc4)CC3)C2=O)cc1 (centres unmarked) [ROPITOIN] | – | – | – | – | 21.5 µM | 5.28 | > 9.59 µM | 4.08 µM | – |
| CC(=O)N1C[C@H](O)C[C@H]1C(=O)N[C@@H](CCCNC(=N)N)C(=O)c1nc2ccccc2s1 [RWJ-56423] | > 29.9 µM | 1.23 µM | > 39.8 µM | >24 | – | – | – | – | – |
| Cc1cn2nc(-c3cc(=O)n4cc(N5CCNC6(CC6)C5)ccc4n3)cc(C)c2n1 [Risdiplam] | – | – | – | – | > 17.8 µM | 2.53 | > 7.05 µM | > 7.05 µM | – |

| Compound | CC50 (in vitro [1]) | EC50 (SARS-CoV-2 [4]) | CC50 (in vitro [2]; [7]) | Calu3 SI CC50/CoV-2 EC50 (SARS-CoV-2 [3]; Table 4) | CC50 (in vitro [2]; [8]) | HeLa-ACE2 CC50/CoV-2 EC50 (SARS-CoV-2 [5]) | EC50 (HeLa-ACE2 cells) | EC50 (SARS-CoV-2 [6]) | also measured |
| --- | --- | --- | --- | --- | --- | --- | --- | --- | --- |
| CCOC(=O)/C=C/[C@H](C[C@@H]1CCNC1=O)NC(=O)[C@@H](CC(=O)[C@@H](NC(=O)c1cc(C)on1)C(C)C)Cc1ccc(F)cc1 [Rupinavir] | – | – | – | – | > 39.8 µM | 4.15 | > 9.59 µM | > 9.59 µM | – |
| CC(CN1CCN(c2cccc3c2CCCN3)CC1)NC(=O)c1ccc(F)cc1 (centres unmarked) [SLV-307] | – | – | – | – | > 39.8 µM | 4.15 | > 6.7 µM | > 9.59 µM | – |
| CN(C)CCC1CCc2cc(OCc3ccc(-c4ccccc4)cc3)ccc2C1 (centres unmarked) [TAK-070] | – | – | – | – | 10.1 µM | 7.19 | > 5.5 µM | 1.41 µM | – |
| COc1cc(CC2c3cc(OC)c(OC)cc3CCN2C)c(Oc2cc3c(cc2OC)-c2c(O)c(OC)cc4c2C(C3)N(C)CC4)cc1OC (centres unmarked) [Thalicarpine Analog] | – | – | – | – | > 21.5 µM | 26.77 | > 8.78 µM | > 0.8 µM | – |
| CN1CCN(CCCN2c3ccccc3Sc3ccc(S(=O)(=O)N(C)C)cc32)CC1 [Thioproperazine] | – | – | – | – | 22.1 µM | 7.29 | > 9.59 µM | 3.03 µM | – |
| NC(N)=Nc1ncc(Cl)c2ccc(-c3cccc(C(=O)O)c3)cc12 [UK-356202] | > 29.9 µM | 1.92 µM | > 39.8 µM | >15 | – | – | – | – | – |
| COC(=O)C1=C(C)NC(C)=C(C(=O)OCCCCNC[C@@H](O)COc2ccccc2)C1c1cccc([N+](=O)[O-])c1 (some centres unmarked) [YM 430] | – | – | – | – | > 20.2 µM | 7.01 | > 7.8 µM | 2.88 µM | – |
| CC(=N)N1CCC(Oc2ccc(N(Cc3ccc4ccc(C(=N)N)cc4c3)S(=O)(=O)CC(=O)O)cc2)CC1 [YM 60828] | > 29.9 µM | 3.38 µM | > 39.8 µM | >9 | – | – | – | – | – |
| C=CCc1c(OCCCNCc2ccccc2)ccc2c1[nH]c1ccccc12 [YM-75440] | – | – | – | – | 8.01 µM | 4.89 | > 6.58 µM | 1.64 µM | – |
| OCCN1CCN(CC/C=C2\c3ccccc3Sc3ccc(Cl)cc32)CC1 [ZUCLPEN THIXL] | – | – | – | – | > 16.8 µM | >8.08 | > 9.59 µM | 2.08 µM | – |
| C[C@@H](n1cnc2cc(Cl)ccc2c1=O)[C@](O)(Cn1cncn1)c1ccc(F)cc1F [albaconazole] | – | – | – | – | > 39.8 µM | 6.6 | > 9.59 µM | > 6.04 µM | – |
| COCc1c(C(C)C)nc(C(C)C)c(/C=C/[C@@H](O)C[C@@H](O)CC(=O)O)c1-c1ccc(F)cc1 [cerivastatin (sodium salt)] | > 29.9 µM | 0.348 µM | 0.308 µM | >85 | – | – | – | – | – |
| COc1ccc2nc3cc(Cl)ccc3c(Nc3cc(CN4CCCC4)c(O)c(CN4CCCC4)c3)c2n1 [pyronaridine] | – | – | – | – | > 7.39 µM | >4.86 | 3.41 µM | 1.52 µM | – |
| O=C(c1ccc(OCCN2CCCCC2)cc1)c1c(-c2ccc(O)cc2)sc2cc(O)ccc12 [raloxifene hydrochloride] | – | – | – | – | > 13.3 µM | >2.97 | > 8.71 µM | 4.48 µM | – |
| COc1cc2c(Nc3ccc(Cl)c(Cl)c3F)ncnc2cc1OC[C@@H]1C[C@@H]2CN(C)C[C@@H]2C1 [tesevatinib] | – | – | – | – | > 20.6 µM | >8.46 | > 8.16 µM | 2.44 µM | – |
